# Measurements: patent US20090203877A1, “X-RAY-DENSE CONJUGATE” (Eberhard-Karls-Universitaet Tuebingen Universitaetsklinkum, priority 2006, published 2009)
# “Also recorded” adds a separate entry of the source.
# Experiments:
# [1] = system: human malignant U373 glioma cells; assay: Cell viability / cell death (MTT test, propidium iodide, annexin-V-Alexa 568 binding, FACS scatter morphology); conditions: 260 μM in 0.1% DMSO/PBS, 20 min, substance alone
# Protocol: Human malignant U373-glioma cells were grown to 70% confluency in RPMI-1640 Ready Mix Medium containing L-Glutamine and 10% FBS-Gold (PAA laboratories, Pasching, Austria) at 37° C., 5% CO2 (vol/vol), in 4-well-plates (NUNC, Wiesbaden, Germany) with about 300,000 cells pro well. […] After this, the cells were washed three times with buffer and then incubated with Ready Mix Medium again. Cell viability was then assessed by the addition of methyl-thiazoyl-tetrazolium (MTT) salt (Sigma-Aldrich, Germany) at a concentration of 15 mg/ml. After 20 minutes, the production of formazan was investigated. When blue formazan granules were detected, propidium iodine (PI) was added to the medium (1 μM PI; Molecular Probes, Eugene, Oreg., USA) to detect cells with damaged cell membranes. […] Pictures were taken with a 3-CCD color video camera (MC3254P, Sony, Japan) and the Axiovision Software (Carl Zeiss, Jena, Germany). The intensity of cell fluorescence was recorded at the exposure time necessary for the production of the fluorescence images.
# After imaging, Accutase™ (PAA laboratories, Pasching, Austria) was added to the wells to achieve detachment of the cells for further FACS analysis. Fluorescence was measured in a Becton Dickinson FACSCalibur. A total of 20,000 events per sample were analyzed. The investigations were performed in triplicate.
# A sample of cells from each Eppendorf tube was subjected to the MTT test (described under 1.4) to determine microscopically whether the cells were viable. In vitro CT of the cell pellets was performed with a Somatom Sensation 16 (Siemens) which is used for routine clinical investigations.
# Cells were incubated for 20 minutes with each of the conjugates dissolved in 0.1% DMSO/PBS at 260 μm. The cells were also incubated with TIBA and both of the non-TIBA-containing conjugates (3 and 4) separately in 0.1% DMSO/OBS at 260 μm. Both TIBA and the conjugates were dissolved in 0.1% DMSO/PBS at 260 μm for incubation due to the insolubility of TIBA (but not the conjugates) in pure PBS. As controls, the cells were incubated with PBS alone, 0.1% DMSO/PBS alone, and TIBA alone (260 μm in 0.1% DMSO/PBS).
# The detection of phosphatidyl serine in the outer membrane leaflet of apoptotic cells was performed with the Annexin-V-Alexa™-568-reagent according to manufacturer's protocol (Roche Molecular Biochemicals, Indianapolis, USA). The confocal laser-scanning microscopy was performed on an inverted LSM 510 laser-scanning microscope (Carl Zeiss, Jena, Germany) (objectives: LD Achroplan 40×0.6, Plan Neofluar 20×0.50, 40×0.75). For fluorescence excitation, the 488 nm line of an argon-ion laser and the […] line of a helium-neon laser with appropriate beam splitters and barrier filters were used for FITC and Alexa respectively. Superimposed images of FITC- and Alexa-stained samples were created by overlaying coincident views. All measurements were performed on living, non-fixed cells.
# Human malignant LN18 and U373 glioma cells were cultivated in four-well plates (NUNC, Wiesbaden, Germany) (about 300,000 cells per well) as described under 1.5. […] The cells were also coincubated either with CIBA, FIBA or TBPI as well as the NLS-FITC conjugate 3 (each 260 μM). As a control cells were used which were only incubated either with CIBA, FIBA or TBPI (260 μM in PBS) alone. After the incubation the cells were washed three times with PBS and in the following again incubated in Ready Mix Medium. The FITC-labelled conjugates and the Alexa-Annexin for the detection of phosphatidylserine as a signal of the cell death were localized with the confocal laser microscopy (CLSM) as in 1.6.1. All measurements were performed on living cells.
# [2] = system: human malignant U373 glioma cells; assay: Computer tomography, signal density of cell pellets; format: cell-based; conditions: 260 μM, 20 min
# Protocol: For CT and FACS human U373 glioma cells were grown under the same conditions in 75 cm^2 culture flasks (Corning Costar, Bodenheim, Germany) (70% confluency). Accutase™ (PAA laboratories, Pasching, Austria) was added to achieve detachment of the cells which were harvested and subsequently aliquoted into Eppendorf tubes (6×10^6 cells per tube). As in the investigations performed by fluorescence microscopy, the cells in the first tube served as a control (PBS only). The cells in the other tubes were incubated with 260 μM Ultravist, 260 μM TIBA in PBS and 26 μM, 260 μM and 2.6 mM conjugates 1-4 in PBS. After a 20 minute incubation period at 37° C. in an atmosphere of 5% CO2, the cells were washed three times in PBS and centrifuged at 800 rpm for 5 minutes.
# The inner ear spiral CT protocol consisted of: tube voltage 120 KV, effective mAs 550, time of imaging TI: 1.5, SL 0.75/0.75/4.5, FOV: 50 0/52, kernel: U70, window: intervertebral disc.
# 3D-images were obtained using InSpace Software (Syngo CT 2006G) (Siemens AG, Erlangen, Germany).
# After an incubation of 20 minutes at 37° C./5% CO2 the cells were washed three times with PBS buffer and centrifuged at 800 rpm (rounds per minute) for 5 minutes. The fluorescence was measured in Becton Dickinson FACSCalibur as described under 1.4. The computer tomography was performed as described under 1.5.1. The examinations were repeated two times. […]
# An Orbita CT spiral was used: tube voltage 120 KV, effective mAs 550, time of imaging TI: 1.5, SL 0.75/0.75/4.5, FOV: 50 0/52, GT: 0.0, kernel: U70, window: intervertebral disc. 3D images were made with the InSpace Software (Syngo CT 2006G) (Siemens AG, Erlangen, Germany). […]
# Solubility = format: physicochemical; conditions: 260 μM
# [3] = cited from earlier work
smiles,measurement,setting,value
"O=C(O)c1cc(I)cc(I)c1I [TIBA, 2,3,5-triiodobenzoic acid, reference compound]",binding of annexin-V-Alexa 568 reagent (phosphatidyl serine) / cytotoxic effects,[1],did not result in binding; also recorded: did not appear to produce any cytotoxic effects
same,CT signal density of cell pellets,[2],only low signal density values; also recorded: did not result in any increase in signal density
same,solubility in pure PBS,Solubility,insolubility
same,solubility in water,[3],does not dissolve in water
